This is an account of results in ChEMBL document CHEMBL1201862, “PubChem BioAssay data set” (2004).

Some test systems named below: 786-0; SK-MEL-2; DU-145; NCI-H522; HT-29; COLO 205; RXF 393; M14; SF-295; BT-549; SN12C; HL-60; TK-10; MDA-MB-435; HCT-116; K562; SK-MEL-28; HOP-62; Malme-3M.
Common to all, as to experiment: NCI anticancer screen, dose series, 48 h

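In this assay, cells in 96-well plates receive the compound at five concentrations for 48 hours. Endpoints are linearly interpolated between the surrounding concentrations. Abbreviation: GI50, concentration required for 50% inhibition of growth.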 Active and inactive are the calls of the source. Rule as the data show it: active = GI50 up to about 1.1 µM and inactive = higher. Peptide text beside a SMILES is read from it. * marks the point of attachment. Boc = CC(C)(C)OC(=O)*

For `Cc1cc(O)cc2c1c(=O)c1ccccc1n2C`, the GI50 with 786-0 was 44.4 µM (inactive); in the experiment with SK-MEL-2 it was > 100 µM (inactive); in the experiment on DU-145 it was > 100 µM (inactive); with NCI-H522, 34.8 µM (inactive); in the experiment on HT-29 it was > 100 µM (inactive); with COLO 205, > 100 µM (inactive). In addition, the GI50 was 41.5 µM (inactive) in the experiment on RXF 393; > 100 µM (inactive) with M14; 52.2 µM (inactive) in the experiment on SF-295; 50.6 µM (inactive) in the experiment with BT-549; > 100 µM (inactive) with SN12C; 66.8 µM (inactive) in the experiment on HL-60. Also, the GI50 in the experiment on TK-10 is 46.9 µM (inactive); with MDA-MB-435 it was > 100 µM (inactive); in the experiment with HCT-116, 54.7 µM (inactive).

Turning to `O=C(Nc1ccccc1)Nn1c(-c2cccs2)nc2ccc(I)cc2c1=O`, the GI50 was 0.022 µM (active) in the experiment with K562; 61.7 µM (inactive) with 786-0; 24.3 µM (inactive) with DU-145; 14.3 µM (inactive) with NCI-H522; 25.9 µM (inactive) in the experiment on HT-29; 20.5 µM (inactive) with SK-MEL-28. Further, the GI50 was 51.4 µM (inactive) in the experiment on HOP-62; 21.4 µM (inactive) in the experiment with COLO 205; 30.4 µM (inactive) in the experiment on RXF 393; 35.9 µM (inactive) with M14; 42.6 µM (inactive) in the experiment with SF-295; 10.5 µM (inactive) in the experiment on BT-549. Moreover, the GI50 was 34.8 µM (inactive) in the experiment on SN12C; 1.41 µM (inactive) in the experiment on HL-60; 28.4 µM (inactive) in the experiment on TK-10; 20.1 µM (inactive) in the experiment on MDA-MB-435; 31.4 µM (inactive) in the experiment on HCT-116.

With `COC(=O)/C=C1/OC(c2ccc(C)cc2C)=CC1=O`, the GI50 in the experiment on K562 is 2.81 µM (inactive); with 786-0, 11 µM (inactive); in the experiment on DU-145, 15.5 µM (inactive); in the experiment on NCI-H522, 14.1 µM (inactive); in the experiment with HT-29 it was 5.18 µM (inactive); with SK-MEL-28 it was 19.5 µM (inactive). The GI50 in the experiment with HOP-62 is 25.2 µM (inactive); with COLO 205, 16.6 µM (inactive); in the experiment on RXF 393 it was 12.1 µM (inactive); with M14, 15.6 µM (inactive); in the experiment on Malme-3M, 16.4 µM (inactive); in the experiment on BT-549 it was 16.3 µM (inactive). Moreover, the GI50 was 2.74 µM (inactive) in the experiment on HL-60, 17.5 µM (inactive) in the experiment on TK-10, 15.7 µM (inactive) in the experiment on MDA-MB-435 and 11.5 µM (inactive) with HCT-116.

For the compound `O=C(Nc1ccccc1)Oc1ccc(C(=S)Nc2ccc(Br)cc2)cc1`, the GI50 in the experiment with K562 is 21.5 µM (inactive); in the experiment on 786-0, 19.4 µM (inactive); in the experiment with SK-MEL-2 it was 18.3 µM (inactive); with DU-145 it was 31.5 µM (inactive); with NCI-H522 it was 11 µM (inactive); in the experiment with HT-29 it was 16.8 µM (inactive). The GI50 is 19.4 µM (inactive) with SK-MEL-28; 28.6 µM (inactive) with HOP-62; 17.2 µM (inactive) in the experiment on COLO 205; 20.6 µM (inactive) in the experiment on SF-295; 19.2 µM (inactive) with Malme-3M; 12.8 µM (inactive) in the experiment with BT-549. Moreover, the GI50 with HL-60 was 8.13 µM (inactive); with MDA-MB-435 it was 16.9 µM (inactive); in the experiment with HCT-116, 17.3 µM (inactive).

For `OC(c1ccc(F)cc1)C(F)(F)c1nc(-c2ccccc2)no1` (configuration not stated), the GI50 in the experiment with 786-0 is 20.1 µM (inactive); in the experiment with SK-MEL-2 it was 18.9 µM (inactive); in the experiment with DU-145, 21.2 µM (inactive); with NCI-H522, 2.44 µM (inactive); in the experiment with HT-29, 17.6 µM (inactive); in the experiment on SK-MEL-28, 21.1 µM (inactive). Further, the GI50 was 17.9 µM (inactive) in the experiment on M14; 13.9 µM (inactive) in the experiment with Malme-3M; 17.8 µM (inactive) with BT-549; 21.6 µM (inactive) in the experiment with SN12C; 22.5 µM (inactive) in the experiment on HL-60; 38.3 µM (inactive) with TK-10. Further, the GI50 in the experiment on MDA-MB-435 is 19.4 µM (inactive); with HCT-116 it was 19.1 µM (inactive).

As for `COc1ccc(N2C(=O)C3c4[nH]c5cc(Cl)ccc5c4C4CCC(C(C)(C)C)CC4C3C2=O)cc1` (configuration not stated), the GI50 in the experiment with K562 is 33.6 µM (inactive); in the experiment on 786-0, > 100 µM (inactive); in the experiment on DU-145, > 100 µM (inactive); in the experiment on NCI-H522 it was > 100 µM (inactive); in the experiment on HT-29, 31.7 µM (inactive); in the experiment with SK-MEL-28, > 100 µM (inactive). The GI50 in the experiment with HOP-62, with COLO 205, in the experiment on RXF 393, in the experiment with M14, in the experiment on SF-295 and in the experiment on BT-549 was > 100 µM (inactive) in each case. The GI50 with SN12C was 64.9 µM (inactive); in the experiment on HL-60 it was 26.9 µM (inactive); in the experiment on TK-10, > 100 µM (inactive); with MDA-MB-435 it was > 100 µM (inactive); in the experiment with HCT-116, 55.6 µM (inactive).

On to `COc1ccc2c(c1)CCN=C2Cc1ccccc1CCCl`, for which the GI50 is 18 µM (inactive) with K562; 25.3 µM (inactive) in the experiment on 786-0; 25.5 µM (inactive) in the experiment with SK-MEL-2; 50.5 µM (inactive) with DU-145; 19.6 µM (inactive) in the experiment on NCI-H522; 12.2 µM (inactive) in the experiment on HT-29. Moreover, the GI50 was 32.6 µM (inactive) with SK-MEL-28; 36.5 µM (inactive) in the experiment on HOP-62; 17.5 µM (inactive) with COLO 205; 27.8 µM (inactive) with RXF 393; 19.1 µM (inactive) in the experiment with M14; 20.7 µM (inactive) in the experiment with SF-295. Also, the GI50 is 44.2 µM (inactive) in the experiment on BT-549; 24.3 µM (inactive) in the experiment on SN12C; 14.2 µM (inactive) with HL-60; 53.2 µM (inactive) in the experiment on TK-10; 17.1 µM (inactive) in the experiment with MDA-MB-435; 11.9 µM (inactive) in the experiment with HCT-116.

On to `CC(C)(C)OC(=O)NCC(=O)N1CCN(C(=O)CNC(=O)OC(C)(C)C)CC1`, for which the GI50 with K562 was > 100 µM (inactive); in the experiment on 786-0, > 100 µM (inactive); in the experiment on SK-MEL-2, > 100 µM (inactive); with DU-145, > 100 µM (inactive); in the experiment on NCI-H522, 2.55 µM (inactive); in the experiment with HT-29, > 100 µM (inactive). Also, the GI50 in the experiment on SK-MEL-28, with HOP-62, in the experiment with COLO 205, in the experiment on M14, in the experiment on SF-295 and in the experiment with BT-549 was > 100 µM (inactive) throughout. Further, the GI50 with SN12C, in the experiment with HL-60, with TK-10, with MDA-MB-435 and with HCT-116 was > 100 µM (inactive) in each case.

Turning to `Oc1ccc2c(c1)-c1c(c3cc(O)ccc3n1CCN1CCOCC1)CC2`, the GI50 with K562 is 20 µM (inactive); with 786-0 it was 21.9 µM (inactive); with SK-MEL-2 it was 17.6 µM (inactive); in the experiment on DU-145, 28.4 µM (inactive); in the experiment with NCI-H522 it was 17.4 µM (inactive); in the experiment on HT-29 it was 26 µM (inactive). The GI50 with SK-MEL-28 was 18.5 µM (inactive); with HOP-62, 19.5 µM (inactive); in the experiment on COLO 205 it was 17.4 µM (inactive); in the experiment on RXF 393, 19.7 µM (inactive); with M14, 19.5 µM (inactive); in the experiment with SF-295 it was 20.1 µM (inactive). For the same compound, the GI50 in the experiment on BT-549 is 14.5 µM (inactive); in the experiment on SN12C it was 35.3 µM (inactive); in the experiment with HL-60 it was 23.2 µM (inactive); in the experiment with TK-10 it was 41.1 µM (inactive); in the experiment with MDA-MB-435 it was 17.8 µM (inactive); in the experiment on HCT-116, 19.1 µM (inactive).

Turning to `COC(=O)C1=Nc2c(C)nn(-c3ccccc3)c2N=C(c2ccc([N+](=O)[O-])cc2)C1`, the GI50 in the experiment with K562, in the experiment on 786-0, in the experiment with DU-145, with NCI-H522, in the experiment with HT-29 and with SK-MEL-28 was > 10 µM (inactive) each time. For the same compound, the GI50 in the experiment with HOP-62, in the experiment on COLO 205, with M14, with SF-295, in the experiment with Malme-3M and in the experiment on BT-549 was > 10 µM (inactive) throughout. Further, the GI50 in the experiment on SN12C, with HL-60, in the experiment with TK-10, in the experiment with MDA-MB-435 and with HCT-116 was > 10 µM (inactive) each time.

In the case of `COc1ccc2nc3cc(Cl)ccc3c(NCCCN3CCN(CCCNc4ccc5nnn6c7ccccc7c(=O)c4c56)CC3)c2c1`, the GI50 in the experiment with 786-0 was 0.646 µM (active); with SK-MEL-2, > 25 µM (inactive); in the experiment with DU-145, > 25 µM (inactive); in the experiment on NCI-H522 it was 0.391 µM (active); in the experiment with HT-29 it was 0.0251 µM (active); in the experiment on SK-MEL-28, > 25 µM (inactive). Moreover, the GI50 in the experiment on HOP-62 is > 25 µM (inactive); with COLO 205, 0.923 µM (active); in the experiment with RXF 393, 0.948 µM (active); in the experiment with M14, > 25 µM (inactive); with SF-295, 2.37 µM (inactive); with BT-549 it was 5.24 µM (inactive). The GI50 in the experiment on SN12C was 1.81 µM (inactive); in the experiment with HL-60 it was 1.14 µM (inactive); in the experiment with TK-10 it was > 10.3 µM (inactive); in the experiment with MDA-MB-435 it was 3.25 µM (inactive); in the experiment with HCT-116, 0.0191 µM (active).

For the compound `COC(=O)C(Cc1c[nH]c2ccccc12)NC(=O)C(Cc1c[nH]c2ccccc12)NC(=O)C(Cc1c[nH]c2ccccc12)NC(=O)C(Cc1c[nH]c2ccccc12)NC(=O)C(Cc1c[nH]c2ccccc12)NC(=O)OC(C)(C)C` (configuration not stated) (Boc-WWWWW-OMe; configuration not given here), the GI50 is 36.8 µM (inactive) with K562; 60 µM (inactive) in the experiment with 786-0; 45.2 µM (inactive) in the experiment on SK-MEL-2; 33.4 µM (inactive) with DU-145; 46 µM (inactive) with NCI-H522; > 100 µM (inactive) in the experiment on HT-29. For the same compound, the GI50 in the experiment with SK-MEL-28 was 55.7 µM (inactive); with HOP-62, > 100 µM (inactive); in the experiment on M14, 33.3 µM (inactive); with Malme-3M it was 94.2 µM (inactive); in the experiment with BT-549, 91.8 µM (inactive); in the experiment with SN12C it was > 100 µM (inactive). The GI50 with HL-60 was 33 µM (inactive); in the experiment with TK-10, > 100 µM (inactive); in the experiment with MDA-MB-435 it was > 100 µM (inactive); in the experiment on HCT-116, 29.7 µM (inactive).
